Where two headings read alike, the source gives them in different places.
Key:
Type in all cases: cell-based
S. aureus = test: Broth dilution MIC determination (CLSI) against S. aureus strains; details: for MIC: Staphylococcus aureus
How it was run: (§1)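 Strains, including multidrug-resistant and macrolide-resistant ones, were exposed to macrolides in broth dilution per CLSI standards, and the lowest inhibiting concentration was recorded as MIC. Azithromycin and solithromycin were run alongside.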

E. coli = test: Broth dilution MIC determination (CLSI) against E. coli strains; details: Escherichia coli
How it was run: as §1

E. faecalis = test: Broth dilution MIC determination (CLSI) against E. faecalis strains; details: for MIC: Enterococcus faecalis
How it was run: as §1

P. aeruginosa = test: Broth dilution MIC determination (CLSI) against P. aeruginosa strains; details: Pseudomonas aeruginosa
How it was run: as §1

S. pneumoniae = test: Broth dilution MIC determination (CLSI) against S. pneumoniae strains; details: for MIC: Streptococcus pneumoniae
How it was run: as §1

H. influenzae = test: Broth dilution MIC determination (CLSI) against H. influenzae strains; details: for MIC: Haemophilus influenzae
Source text: Minimum inhibitory concentrations (MICs) for macrolides described herein have been determined for unique strains of S. aureus, S. pneumoniae, S. pyogenes, E. faecalis, E. coli, A. baumannii, K. pneumoniae, P. aeruginosa, and H. influenzae, including several multidrug-resistant strains, with a special focus on macrolide resistant mechanisms. Azithromycin and solithromycin were included as control compounds. CLSI standard procedures for broth dilution MIC determination were used. Data for exemplary compounds described herein is shown in Tables M1-M7 and in Tables N1-N4.

A. baumannii = test: Broth dilution MIC determination (CLSI) against A. baumannii strains; details: Acinetobacter baumannii
How it was run: as §1

S. pyogenes = test: Broth dilution MIC determination (CLSI) against S. pyogenes strains; details: Streptococcus pyogenes
How it was run: as §1

K. pneumoniae = test: Broth dilution MIC determination (CLSI) against K. pneumoniae strains; details: for MIC: Klebsiella pneumoniae
How it was run: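 Azithromycin and solithromycin served as controls; MICs were obtained by standard CLSI broth dilution on a strain panel including multidrug-resistant and macrolide-resistant isolates.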

[1] = MRSA / USA100, MRSA: USA100, read-out: MIC S. aureus MRSA: USA100
[2] = MRSA / USA300, MRSA: USA300, read-out: MIC S. aureus MRSA: USA300
[3] = USA600, USA600, GISA, read-out: MIC S. aureus USA600, GISA
[4] = read-out: MIC S. aureus erm A genotype
[5] = ATCC25922, ATCC25922, read-out: MIC E. coli ATCC25922
[6] = read-out: MIC E. coli NDM-1, NDM-1
[7] = Vancomycin-resistant, read-out: MIC E. faecalis Vancomycin-resistant
[8] = ATCC27853, read-out: MIC P. aeruginosa ATCC27853
[9] = ATCC49619, ATCC49619, read-out: MIC S. pneumoniae ATCC49619
[10] = erm B + tet(M, O) genotype, read-out: MIC S. pneumoniae erm B + tet(M, O) genotype
[11] = ATCC49247, ATCC49247, read-out: MIC H. influenzae ATCC49247
[12] = ATCC19606, ATCC19606, read-out: MIC A. baumannii ATCC19606
[13] = imipenem-resistant, read-out: MIC A. baumannii imipenem-resistant
[14] = ATCC19615, ATCC19615, read-out: MIC S. pyogenes ATCC19615
[15] = macrolide-resistant, read-out: MIC S. pyogenes macrolide-resistant
[16] = ATCC10031, ATCC10031, read-out: MIC K. pneumoniae ATCC10031
[17] = KPC-2, read-out: MIC K. pneumoniae KPC-2

C=CCOC(=O)NCC1CC(N(C)C)C(O)[C@H](O[C@@H]2[C@@H](C)C(=O)[C@@H](C)C(=O)O[C@H](CC)[C@@]3(C)OC(=O)N(CCCCn4cc(-c5cccc(N)c5)nn4)[C@@H]3[C@@H](C)NC[C@H](C)C[C@@]2(C)OC)O1 (stereo partly drawn) [FSM-21795]
16 µg/mL: MIC (S. aureus; ATCC29213, ATCC29213, read-out: MIC S. aureus ATCC29213) | MIC (E. coli; [5]) | MIC (S. pneumoniae; read-out: MIC S. pneumoniae mef A genotype, mef A genotype)
0.25 µg/mL: MIC (S. pneumoniae; [9])
8 µg/mL: MIC (H. influenzae; erythro > 4, azithro 1, read-out: MIC H. influenzae erythro > 4, azithro 1) | MIC (K. pneumoniae; [16])
0.0625 µg/mL: MIC (S. pneumoniae; [10]) | MIC (S. pyogenes; [14])
32 µg/mL: MIC (P. aeruginosa; [8]) | MIC (A. baumannii; [12]) | MIC (A. baumannii; [13])
2 µg/mL: MIC (S. pyogenes; [15])
1 µg/mL: MIC (E. faecalis; ATCC29212, ATCC29212, read-out: MIC E. faecalis ATCC29212)
4 µg/mL: MIC (S. pneumoniae; read-out: MIC S. pneumoniae mef A genotype, mef A genotype, first of two such columns (c3)) | MIC (H. influenzae; [11])
> 32 µg/mL: MIC (S. aureus; [1]) | MIC (S. aureus; [2]) | MIC (S. aureus; [3]) | MIC (S. aureus; [4]) | MIC (E. coli; [6]) | MIC (E. faecalis; [7]) | MIC (S. pneumoniae; erm B + mef A genotype, read-out: MIC S. pneumoniae erm B + mef A genotype) | MIC (K. pneumoniae; [17])

CC[C@H]1OC(=O)[C@H](C)C(=O)[C@H](C)[C@@H](O[C@@H]2OC(Cn3cc(-c4ccccn4)nn3)CC(N(C)C)C2O)[C@](C)(OC)C[C@@H](C)CN[C@H](C)[C@H]2N(CCCCn3cc(-c4cccc(N)c4)nn3)C(=O)O[C@]12C (stereo partly drawn) [FSM-22111]
≤ 0.0312 µg/mL: MIC (S. pneumoniae; [9]) | MIC (S. pneumoniae; [10]) | MIC (S. pyogenes; [14])
32 µg/mL: MIC (E. coli; [6]) | MIC (K. pneumoniae; [17])
1 µg/mL: MIC H. influenzae erythro > 4, azithro 1 (H. influenzae; erythro > 4, azithro 1) | MIC (S. pyogenes; [15])
2 µg/mL: MIC S. aureus ATCC29213 (S. aureus; ATCC29213) | MIC S. pneumoniae erm B + mef A genotype (S. pneumoniae; erm B + mef A genotype) | MIC (H. influenzae; [11])
16 µg/mL: MIC (E. coli; [5]) | MIC (E. coli; read-out: MIC E. coli TEM-1, TEM-1) | MIC (A. baumannii; [12]) | MIC (A. baumannii; chromosomal class C, read-out: MIC A. baumannii chromosomal class C) | MIC (A. baumannii; [13])
0.25 µg/mL: MIC E. faecalis ATCC29212 (E. faecalis; ATCC29212)
8 µg/mL: MIC (K. pneumoniae; [16]) | MIC K. pneumoniae TEM-10 (K. pneumoniae; TEM-10)
> 32 µg/mL: MIC (S. aureus; [1]) | MIC (S. aureus; [2]) | MIC (S. aureus; [3]) | MIC (S. aureus; [4]) | MIC (E. coli; read-out: MIC E. coli CTX-M-14, CTX-M-14) | MIC (E. faecalis; [7]) | MIC (P. aeruginosa; [8]) | MIC (P. aeruginosa; read-out: MIC P. aeruginosa HPA101-1477) | MIC (A. baumannii; IMP-4, read-out: MIC A. baumannii IMP-4) | MIC (K. pneumoniae; SHV-12, read-out: MIC K. pneumoniae SHV-12)
